Active and inactive are the calls of the source.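 How the source made its calls: active means fitted curve reaches 40% activation below the top valid tested dose, in every test run; inconclusive means test runs disagree on the call; inactive means the rest, including effects opposite to the expected direction.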
Experiment: E-selectin inducers in HUVECs, dose response, imaging, HUVEC, cherry-picked samples (AID 977605);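 further: signal is the share of imaged cells scored positive for E-selectin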
Settings: HUVEC E-selectin immunostaining, at 19.5 µM (top of the series), percent of TNF-alpha response over vehicle
With `O=C(CCC(=O)N1CCOCC1)Nc1ccc(Cl)c(Cl)c1` the activation was 0.295% (inactive).
In the case of `CCCC#Cc1ccc2c(c1)O[C@@H](CN(C)CCC)[C@@H](C)CN([C@@H](C)CO)S2(=O)=O`, the activation was -0.152% (inactive).
In the case of `C[C@H]1CN([C@@H](C)CO)C(=O)c2cc(NS(=O)(=O)c3cn(C)cn3)ccc2O[C@@H]1CN(C)Cc1ccncc1`, the activation was -0.214% (inactive).
With `C[C@H]1CN([C@@H](C)CO)C(=O)c2cc(NC(=O)Nc3ccc(F)cc3)ccc2O[C@H]1CN(C)S(C)(=O)=O` the activation was 4.69% (inactive).
With `COc1cccc(CNC(=O)CN2C(=O)COc3ccc(S(=O)(=O)N4CCCCCC4)cc32)c1` the activation was -0.081% (inactive).
For `C[C@H]1CN([C@@H](C)CO)C(=O)c2cccc(NS(C)(=O)=O)c2O[C@@H]1CN(C)Cc1ccncc1`, the activation was -0.178% (inactive).
With `C[C@H]1CN([C@@H](C)CO)C(=O)c2cc(Br)cnc2O[C@H]1CN(C)Cc1cccc(F)c1` the activation was -0.038% (inactive).
In the case of `Cc1noc(C)c1NC(=O)N(C)C[C@@H]1Oc2ccc(NC(=O)Cn3cnnn3)cc2C(=O)N([C@@H](C)CO)C[C@@H]1C`, the activation was -0.143% (inactive).
For `C[C@@H]1CN([C@H](C)CO)C(=O)c2cc(NC(=O)Nc3ccc4c(c3)OCO4)ccc2O[C@H]1CN(C)S(=O)(=O)c1ccc(F)cc1`, the activation was -0.11% (inactive).
In the case of `CCCCNC(=O)N1c2ccccc2CC1C` (centres undefined), the activation was 0.083% (inactive).
For `CCN(CC)CCN(C(=O)Cn1nnc(-c2ccc(C)o2)n1)C(C(=O)NC(C)(C)C)c1cccs1` (centres undefined), the activation was -0.044% (inactive).
For `COc1ccc(NC(=O)N(C)C[C@@H]2Oc3c(NS(=O)(=O)c4cn(C)cn4)cccc3C(=O)N([C@@H](C)CO)C[C@H]2C)cc1`, the activation was -0.199% (inactive).
For `CC(C)N(CCC#N)C(=O)Nc1ccc2c(c1)CCO2`, the activation was -0.194% (inactive).
For `COc1ccc(CN2CCN(C(=O)c3ccccc3C(=O)c3ccccc3)CC2)cc1OC`, the activation was 0.003% (inactive).
In the case of `C[C@H](CO)N1C[C@H](C)[C@@H](CN(C)Cc2ccc(Oc3ccccc3)cc2)Oc2ccc(NC(=O)Nc3ccc(C(F)(F)F)cc3)cc2C1=O`, the activation was 0.27% (inactive).
For `Cc1ccc(S(=O)(=O)NNC(=O)c2cccc(O)c2)cc1`, the activation was -0.007% (inactive).
In the case of `Cc1noc(C)c1COc1ccc(C(=O)N2CCC(C)CC2)cc1`, the activation was 8.94% (inactive).
For `N#Cc1cccnc1N1CCC(C(N)=O)CC1`, the activation was 0.067% (inactive).
For `C[C@H](CO)N1C[C@H](C)[C@@H](CN(C)S(=O)(=O)c2cn(C)cn2)Oc2ccc(NC(=O)Nc3ccc(F)cc3)cc2CC1=O`, the activation was 0.1% (inactive).
In the case of `CN(C)c1cccc(C(=O)NCc2ccc3c(c2)OCO3)c1`, the activation was 8.26% (inactive).
With `O=C(Nc1cccc(S(=O)(=O)NCc2ccco2)c1)c1cccc(Cl)c1` the activation was 0.285% (inactive).
In the case of `C=C(C)CCC(C)N1CCC(n2nccc2NC(=O)CCOc2ccccc2)CC1` (centres undefined), the activation was -0.056% (inactive).
With `Cc1cc(C)nc(NC(N)=NC(C)c2ccccc2)n1` (centres undefined) the activation was -0.07% (inactive).
For `C[C@H]1CN([C@@H](C)CO)C(=O)c2cccc(NC(=O)Nc3ccc(F)cc3)c2O[C@H]1CN(C)CC1CCCCC1`, the activation was -0.099% (inactive).
For `C[C@@H]1CN([C@H](C)CO)C(=O)c2cccc(NC(=O)Nc3ccc(C(F)(F)F)cc3)c2O[C@@H]1CN(C)S(=O)(=O)c1cccs1`, the activation was -0.223% (inactive).

Same assay, conditions: HUVEC E-selectin immunostaining, at 21 µM (top of the series), percent of TNF-alpha response over vehicle
With `CC(C)NC(=O)N(C)C[C@H]1Oc2ccc(NC(=O)CCN3CCOCC3)cc2C(=O)N([C@H](C)CO)C[C@@H]1C` the activation was 0.008% (inactive).
With `C[C@@H]1CN([C@H](C)CO)C(=O)c2cccc(NC(=O)Nc3ccc4c(c3)OCO4)c2O[C@H]1CN(C)C(=O)Nc1ccc(C(F)(F)F)cc1` the activation was 0.262% (inactive).
In the case of `CC(C)NC(=O)Nc1cccc2c1O[C@@H](CN(C)Cc1ccc(Cl)c(Cl)c1)[C@@H](C)CN([C@H](C)CO)C2=O`, the activation was 7.29% (inactive).
In the case of `C[C@@H]1CN([C@@H](C)CO)C(=O)Cc2cc(NS(=O)(=O)c3ccc(F)cc3)ccc2O[C@@H]1CN(C)S(=O)(=O)c1ccc(Cl)cc1`, the activation was -0.065% (inactive).

— PubChem BioAssay AID977605 (Broad Institute, 2014)
